Reference: patent US5798372A, “Method for preventing onset of restenosis after angioplasty employing a retinoid” (Allergan, priority 1997, dated 1998)
Blank lines part the entries; values can stand above or below the molecule they belong to.

What was measured:
[1] = system: smooth muscle cells (canine aorta); experiment: Serum (1%)-induced smooth muscle cell proliferation, 3H-thymidine incorporation; assay type: cell-based; conditions: for IC50: Canis lupus familiaris; for rank order potency on smooth muscle cells: from Table 2
Procedure: (§1) The effect of 1% serum on DNA synthesis by endothelial or smooth muscle cells using ^3 H-thymidine incorporation was measured. For measuring the effectiveness of retinoids in inhibiting endothelial or smooth muscle cell proliferation induced by certain mitogens, i.e., serotonin or β-FGF the indicated concentrations were added to the media instead of 1% serum. Primary cells isolated from canine aorta were used for these studies. Unlike the typical cell lines (e.g. NIH 3T3 cells, etc.) 6-7 weeks are required to isolate and grow these primary cells in sufficient number to perform a single experiment. For the following studies, the primary cells (passages 2-4) were plated on 35×10 mm tissue culture dishes in 10% fetal bovine serum (FBS) and incubated. After 72 hours of growth the medias was replaced with 0.1% FBS for synchronization and incubated for additional 72 hours. Then 1% serum was added and incubated for 20 hours followed by the addition of 1μCi of ^3 H-thymidine. Four hours after the addition of 3H-thymidine the DNA was precipitated and the amount of ^3 H-thymidine incorporated was measured. This value is reported as the serum or serotonin or β-FGF stimulated value for cellular proliferation and is expressed as a percentage of baseline ^3 H-thymidine incorporation.
(§2) To examine the antiproliferative effect of retinoids, they were dissolved in 100% ethanol and then added at the indicated final concentrations. The compounds were added at the time of adding 1% serum or serotonin or β-FGF to stimulate the cells. (The maximal final concentration of ethanol in culture media was 1% which is non-cytotoxic to endothelial or smooth muscle cells). After 20 hours of incubation with retinoids and 1% serum or serotonin or β-FGF, the ^3 H-thymidine incorporation was measured.
(§3) In this experimental dosages ranging between 0.01 and 100 μM were evaluated for the effect of AGN 191183 on cell growth.
(§4) The other retinoids, disclosed above, were also tested for their effect on smooth muscle and endothelial cell growth at the same dosages as for AGN 191183. Table 2 reports the ED50 for each of these retinoids.

[2] = system: endothelial cells (canine aorta); experiment: Serum (1%)-induced endothelial cell proliferation, 3H-thymidine incorporation; assay type: cell-based; conditions: for order of potency for endothelial cells: from Table 2
Procedure: as §1, §2, §3, §4

[3] = system: smooth muscle cells (canine aorta); experiment: Serotonin-induced smooth muscle cell proliferation, 3H-thymidine incorporation; assay type: cell-based; conditions: Canis lupus familiaris, Table 3, read-out: ED50 FOR SMOOTH MUSCLE CELLS, Serotonin
Procedure: as §1
as §2, with “(The maximal final concentration of ethanol in culture media was 1% which is non-cytotoxic to endothelial or smooth muscle cells).” left out
(§5) Certain of the retinoids were then tested for mitogen-induced cellular proliferation, utilizing serotonin (5HT) and β-FGF as such mitogens. In this testing, as reported in Table 3, below, the same dosages were evaluated for their effect on mitogen-induced cellular proliferation (The results are reported as ED50 and compared to the ED50 for serum-induced smooth muscle and endothelial cell growth).

[4] = system: endothelial cells (canine aorta); experiment: Serotonin-induced endothelial cell proliferation, 3H-thymidine incorporation; assay type: cell-based; conditions: Canis lupus familiaris, Table 3, read-out: ED50 FOR ENDOTHELIAL Cells, Serotonin
Procedure: as §1
as §2, with “(The maximal final concentration of ethanol in culture media was 1% which is non-cytotoxic to endothelial or smooth muscle cells).” left out
as §5

[5] = system: smooth muscle cells (canine aorta); experiment: β-FGF-induced smooth muscle cell proliferation, 3H-thymidine incorporation; assay type: cell-based; conditions: Canis lupus familiaris, Table 3, read-out: ED50 FOR SMOOTH MUSCLE CELLS, β-FGF
Procedure: as §1
as §2, with “(The maximal final concentration of ethanol in culture media was 1% which is non-cytotoxic to endothelial or smooth muscle cells).” left out
as §5

[6] = system: endothelial cells (canine aorta); experiment: β-FGF-induced endothelial cell proliferation, 3H-thymidine incorporation; assay type: cell-based; conditions: Canis lupus familiaris, Table 3, read-out: ED50 FOR ENDOTHELIAL Cells, β-FGF
Procedure: as §1
as §2, with “(The maximal final concentration of ethanol in culture media was 1% which is non-cytotoxic to endothelial or smooth muscle cells).” left out
as §5

RAR and RXR receptor = experiment: RAR vs RXR agonist activity (retinoid selectivity); assay type: biochemical; conditions: Table 2; RAR selective agonist preferably has RAR vs RXR activity ratio of at least 5
Text: (Of course, pan agonists show agonist activity at both the RAR and RXR receptor.)
A pan agonist will have activity at both of the RAR and RXR receptor, e.g. similar potency at the RAR and RXR receptor.

[7] = system: smooth muscle cells (canine aorta); experiment: Serum (1%)-induced smooth muscle cell proliferation, 3H-thymidine incorporation; assay type: cell-based
[8] = system: endothelial cells (canine aorta); experiment: Serum (1%)-induced endothelial cell proliferation, 3H-thymidine incorporation; assay type: cell-based; conditions: Canis lupus familiaris, 1% serum, 100% = 1739 ± 71 cpm/10^6 cells, serum stimulated 1246 ± 91, read-out: % ENDOTHELIAL (cell growth, % of baseline 3H-thymidine incorporation)
[9] = serum induced, Table 3, read-out: ED50 FOR SMOOTH MUSCLE CELLS, Serum
[10] = serum induced, Table 2, read-out: ED50 FOR SMOOTH MUSCLE CELLS (concentration at which proliferation is inhibited by 50%)
[11] = Canis lupus familiaris, Endothelial cell, serum induced, Table 2, read-out: ED50 FOR ENDOTHELIAL CELL (concentration at which proliferation is inhibited by 50%)
[12] = read-out: ED50 FOR SMOOTH MUSCLE CELLS (concentration at which proliferation is inhibited by 50%)
[13] = Canis lupus familiaris, Endothelial cell, read-out: ED50 FOR ENDOTHELIAL CELL (concentration at which proliferation is inhibited by 50%)

SMILES: CC1=C(/C=C/C(C)=C/C=C/C(C)=C\C(=O)O)C(C)(C)CCC1 [AGN 190013, (2Z,4E,6E,8E)-3,7-dimethyl-9-(2,6,6-trimethyl-1-cyclohexen-1-yl)-2,4,6,8-nonatetraenoic acid]
IC50 [1, 9]: 7.4 µM
IC50 ([2]; Canis lupus familiaris, Endothelial cell, serum induced, Table 3, read-out: ED50 FOR ENDOTHELIAL Cells, Serum): 31.5 µM
IC50 [3]: 5 µM
IC50 [4]: 0.0092 µM
IC50 [5]: > 100 µM
IC50 [6]: 0.009 µM

SELECTIVITY (RAR and RXR receptor): RAR
SMILES: CC(C)(C)c1ccc(C#Cc2ccc(C(=O)O)cc2)cc1OC1CCCCO1 (stereo not shown) [AGN 192326, 4-[2-(3-(2-tetrahydropyranyl)oxy)-(4-(1,1-dimethylethyl)phenyl)ethynyl]benzoic acid]
IC50 [1, 10]: 6.5 µM
rank order potency on smooth muscle cells ([1]; serum induced): AGN 191659=191183>AGN 192327>AGN 191985>AGN 192326
IC50 [2, 11]: 16.5 µM

SELECTIVITY (RAR and RXR receptor): RAR
SMILES: CC(C)(C)c1ccc(C#Cc2ccc(C(=O)O)cn2)cc1OC1CCCCO1 (stereo not shown) [AGN 192327, 6-[2-(3-(2-tetrahydropyranyl)oxy)-(4-(1,1-dimethylethyl)phenyl)ethynyl]-3-nicotinic acid]
IC50 [1, 10]: 4 µM
rank order potency on smooth muscle cells ([1]; serum induced): AGN 191659=191183>AGN 192327>AGN 191985>AGN 192326
IC50 [2, 11]: 29 µM

SMILES: C/C(=C\c1ccc(C(=O)O)cc1)c1ccc2c(c1)C(C)(C)CCC2(C)C [AGN 191183, (E)-4-[2-(5,6,7,8-tetrahydro-5,5,8,8-tetramethyl-2-naphthalenyl)-1-propen-1-yl] benzoic acid]
IC50 [1, 12]: 0.03 µM
rank order potency on smooth muscle cells ([1]; serum induced): AGN 191659=191183>AGN 192327>AGN 191985>AGN 192326
effectiveness for inhibiting the growth of smooth muscle and endothelial cells ([1]; smooth muscle and endothelial cells (also A2), serum induced): most effective retinoid for inhibiting the growth of both smooth muscle and endothelial cells
IC50 [2, 13]: 6.15 µM
order of potency for endothelial cells ([2]; serum induced): AGN 192013>AGN 190205=AGN 191183
SELECTIVITY (RAR and RXR receptor): RAR
activity at 0.01 µM ([7]; Canis lupus familiaris, 0.01 μM, 1% serum, 100% = 2108 ± 165 cpm/10^6 cells, serum stimulated 725 ± 170, read-out: % SMOOTH MUSCLE (cell growth, % of baseline 3H-thymidine incorporation)): 376 ± 17%
activity at 0.05 µM ([7]; Canis lupus familiaris, 0.05 μM, 1% serum, 100% = 2108 ± 165 cpm/10^6 cells, serum stimulated 725 ± 170, read-out: % SMOOTH MUSCLE (cell growth, % of baseline 3H-thymidine incorporation)): 348 ± 95%
activity at 0.1 µM ([7]; Canis lupus familiaris, 0.1 μM, 1% serum, 100% = 2108 ± 165 cpm/10^6 cells, serum stimulated 725 ± 170, read-out: % SMOOTH MUSCLE (cell growth, % of baseline 3H-thymidine incorporation)): 219 ± 22%
activity at 0.5 µM ([7]; Canis lupus familiaris, 0.5 μM, 1% serum, 100% = 2108 ± 165 cpm/10^6 cells, serum stimulated 725 ± 170, read-out: % SMOOTH MUSCLE (cell growth, % of baseline 3H-thymidine incorporation)): 205 ± 17%
activity at 1 µM ([7]; Canis lupus familiaris, 1 μM, 1% serum, 100% = 2108 ± 165 cpm/10^6 cells, serum stimulated 725 ± 170, read-out: % SMOOTH MUSCLE (cell growth, % of baseline 3H-thymidine incorporation)): 185 ± 10%
activity at 5 µM ([7]; Canis lupus familiaris, 5 μM, 1% serum, 100% = 2108 ± 165 cpm/10^6 cells, serum stimulated 725 ± 170, read-out: % SMOOTH MUSCLE (cell growth, % of baseline 3H-thymidine incorporation)): 182 ± 3%
activity at 10 µM ([7]; Canis lupus familiaris, 10 μM, 1% serum, 100% = 2108 ± 165 cpm/10^6 cells, serum stimulated 725 ± 170, read-out: % SMOOTH MUSCLE (cell growth, % of baseline 3H-thymidine incorporation)): 126 ± 18%
activity at 50 µM ([7]; Canis lupus familiaris, 50 μM, 1% serum, 100% = 2108 ± 165 cpm/10^6 cells, serum stimulated 725 ± 170, read-out: % SMOOTH MUSCLE (cell growth, % of baseline 3H-thymidine incorporation)): 137 ± 25%
activity at 100 µM ([7]; Canis lupus familiaris, 100 μM, 1% serum, 100% = 2108 ± 165 cpm/10^6 cells, serum stimulated 725 ± 170, read-out: % SMOOTH MUSCLE (cell growth, % of baseline 3H-thymidine incorporation)): 77 ± 28%
activity at 0.1 µM ([8]; 0.1 μM): 959 ± 115%
activity at 0.5 µM ([8]; 0.5 μM): 840 ± 108%
activity at 1 µM ([8]; 1 μM): 815 ± 171%
activity at 5 µM ([8]; 5 μM): 686 ± 40%
activity at 10 µM ([8]; 10 μM): 406 ± 32%
activity at 50 µM ([8]; 50 μM): 17 ± 2%
activity at 100 µM ([8]; 100 μM): 9.3 ± 2.3%

SMILES: CC1=C(/C=C/C(C)=C\C=C\C(C)=C\C(=O)O)C(C)(C)CCC1 [AGN 192013, (2E,4E,6Z,8E)-3,7-dimethyl-9-(2,6,6-trimethyl-1-cyclohexen-1-yl)-2,4,6,8-nonatetraenoic acid, reference compound]
IC50 [1, 10]: > 100 µM
IC50 [1, 9]: > 100 µM
IC50 [2, 11]: 2.25 µM
order of potency for endothelial cells ([2]; serum induced): AGN 192013>AGN 190205=AGN 191183
IC50 [3]: 0.41 µM
IC50 [4]: 0.16 µM
IC50 [5]: > 100 µM
IC50 [6]: 26.5 µM

SELECTIVITY (RAR and RXR receptor): RAR
SMILES: CC1=C(/C=C/C#Cc2ccc(C(=O)O)cc2)C(C)(C)CCC1 [AGN 190121, (E)-4-[4-(2,6,6-trimethyl-1-cyclohexen-1-yl)but-2-en-1-ynyl] benzoic acid]
IC50 [1, 10]: 46 µM
IC50 [2, 11]: 23 µM

SELECTIVITY (RAR and RXR receptor): RXR
SMILES: C/C(=C\c1cc(C(=O)O)cs1)c1cc2c(cc1C)C(C)(C)CCC2(C)C [AGN 191701, reference compound]
IC50 ([2]; serum induced, Table 2, read-out: ED50 FOR ENDOTHELIAL CELL (concentration at which proliferation is inhibited by 50%)): 28.5 µM
IC50 [7, 10]: 18 µM

SMILES: CC1(C)CCC(C)(C)c2cc(C#Cc3ccc(C(=O)O)cc3)ccc21 [AGN 190205, 4-[2-(5,6,7,8-tetrahydro-5,5,8,8-tetramethyl-2-naphthalenyl)ethynyl] benzoic acid]
IC50 [1, 12]: 8.95 µM
IC50 [2, 13]: 6.8 µM
order of potency for endothelial cells ([2]; serum induced): AGN 192013>AGN 190205=AGN 191183
SELECTIVITY (RAR and RXR receptor): RAR

SELECTIVITY (RAR and RXR receptor): PAN AGONIST
SMILES: C/C(=C\c1ccc(C(=O)O)s1)c1cc2c(cc1C)C(C)(C)CCC2(C)C [AGN 191659, (E)-5-[2-(5,6,7,8-tetrahydro-3,5,5,8,8-pentamethyl-2-naphthalenyl)-1-propen-1-yl] thiophene-2-carboxylic acid]
IC50 [1, 10]: 0.038 µM
rank order potency on smooth muscle cells ([1]; serum induced): AGN 191659=191183>AGN 192327>AGN 191985>AGN 192326
IC50 [2, 11]: 39 µM
